Measurements taken from the supplement of paper PMC10307832.

Experiments:
Assay in all cases: relative viability (nuclei count vs DMSO), 5 days (fraction); higher = more cells survive
[1] = compound: C1CNCCC1C2=CC(=NN2)C3=CC=NC=C3 + NC(=O)Nc1cc(-c2cccc(F)c2)sc1C(=O)N[C@H]1CCCNC1 [AZD7762] (partner 0.2 µM)
Outline: (§1)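 A single step with final 0.05% Triton X-100, 1% formaldehyde and 1 ug/ml Hoechst fixed the cells and stained nuclei 5 days after treatment. Lung cancer cell lines in 1536-well plates had been treated by pin tool the day after seeding with one drug alone or a fixed anchor-drug dose plus five library-drug doses (not always all listed) in √10 steps, and nuclei were counted on 4× images. Relative viability is the ratio of nuclei in treated wells to nuclei in vehicle wells, taken as the median of duplicate plates.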

[2] = compound: C[C@@H](N)c1ccc(C(=O)Nc2ccnc3[nH]ccc23)cc1 + CC(=O)c1c(C)c2cnc(Nc3ccc(N4CCNCC4)cn3)nc2n(C2CCCC2)c1=O [Palbociclib] (partner 0.5 µM)
Outline: as §1

[3] = compound: O[C@H]1CC[C@H](Nc2ncc3nc(Nc4c(F)cc(F)cc4F)n([C@H]4CCOC4)c3n2)CC1 [Tanzisertib] + CC(=O)c1c(C)c2cnc(Nc3ccc(N4CCNCC4)cn3)nc2n(C2CCCC2)c1=O [Palbociclib] (partner 0.5 µM)
Outline: as §1

[4] = compound: C1CNCCC1C2=CC(=NN2)C3=CC=NC=C3 + CC1(C)CCC(c2ccc(Cl)cc2)=C(CN2CCN(c3ccc(C(=O)NS(=O)(=O)c4ccc(N[C@H](CCN5CCOCC5)CSc5ccccc5)c(S(=O)(=O)C(F)(F)F)c4)cc3)CC2)C1 [Navitoclax] (partner 0.5 µM)
Outline: as §1

Cell Line | relative viability ([1]; first compound 0.08 µM) | relative viability ([1]; first compound 2.53 µM) | relative viability ([1]; first compound 8 µM) | relative viability ([2]; first compound 0.04 µM) | relative viability ([2]; first compound 0.1265 µM) | relative viability ([2]; first compound 0.4 µM) | relative viability ([2]; first compound 1.265 µM) | relative viability ([2]; first compound 4 µM) | relative viability ([3]; first compound 0.253 µM) | relative viability ([3]; first compound 0.8 µM) | relative viability ([3]; first compound 2.53 µM) | relative viability ([3]; first compound 8 µM) | relative viability ([4]; first compound 0.08 µM) | relative viability ([4]; first compound 0.8 µM) | relative viability ([4]; first compound 2.53 µM) | relative viability ([4]; first compound 8 µM) | relative viability ([3]; first compound 0.08 µM) | relative viability ([1]; first compound 0.8 µM)
SW 900 | 0.687 | 0.718 | 0.738 | 0.564 | 0.607 | 0.547 | 0.581 | 0.611 | 0.522 | 0.557 | 0.56 | 0.454 |  |  |  |  |  | 
NCI-H1650 |  |  |  | 0.384 | 0.369 | 0.319 | 0.294 | 0.344 | 0.326 | 0.404 | 0.351 | 0.314 | 1.11 | 1.37 | 1.12 | 1.22 | 0.297 | 
COR-L 105 |  |  |  | 0.377 | 0.399 | 0.424 | 0.348 | 0.371 | 0.4 | 0.407 | 0.417 | 0.39 | 0.751 | 0.706 | 0.774 | 0.788 | 0.411 | 
A549 |  |  |  |  |  |  |  |  |  |  |  |  | 1.1 | 1.27 | 1.38 | 1.3 |  | 
NCI-H2342 | 0.572 | 0.57 | 0.591 | 0.513 | 0.53 | 0.596 | 0.498 | 0.532 | 0.542 | 0.52 | 0.497 | 0.582 |  |  |  |  | 0.539 | 0.351
SK-LU-1 |  |  |  | 0.42 | 0.44 | 0.465 | 0.273 | 0.338 | 0.388 | 0.37 | 0.384 | 0.389 | 1.25 | 0.913 | 0.85 | 0.88 | 0.455 | 
Calu-6 |  |  |  |  |  |  |  |  |  |  |  |  | 0.879 | 0.86 | 0.914 | 0.87 |  | 
LCLC-103H | 0.724 | 0.904 | 0.837 | 0.473 | 0.478 | 0.433 | 0.423 | 0.388 | 0.466 | 0.486 | 0.456 | 0.465 |  |  |  |  | 0.519 | 0.738
NCI-H596 | 1.1 | 1.12 | 1.39 |  |  |  |  |  |  |  |  |  | 1.01 | 1.07 | 1.02 | 0.958 |  | 1.31
NCI-H661 |  |  |  | 0.388 | 0.464 | 0.41 | 0.35 | 0.362 | 0.406 | 0.423 | 0.386 | 0.415 |  |  |  |  | 0.424 | 
NCI-H522 | 0.764 | 0.832 | 0.879 | 1.03 | 0.986 | 1.1 | 1.02 | 0.874 | 0.984 | 0.959 | 1.13 | 0.899 |  |  |  |  | 1.05 | 0.915
COR-L23 |  |  |  | 0.231 | 0.357 | 0.305 | 0.235 | 0.215 | 0.331 | 0.336 | 0.275 | 0.298 | 0.905 | 1.3 | 1.1 | 1.03 | 0.325 | 
NCI-H1299 |  |  |  |  |  |  |  |  |  |  |  |  | 1.09 | 1.04 | 1.02 | 1.09 |  | 
